Earlier results as cited in patent publication US20210154161A1, “MODIFIED-RELEASE BUCILLAMINE COMPOSITIONS, KITS, AND METHODS FOR TREATING CYSTINURIA, ARTHRITIS, GOUT, AND RELATED DISORDERS” (ALTIBIO, INC., priority 2017, published 2021).

Key:
[1] = cystinuria patients; cited from earlier work
[2] = cited from earlier work
[3] = cited from earlier work; remark: listed apart in the source
[4] = cited from earlier work; remark: listed apart in the source

SMILES | patients with severe side effects / who cannot tolerate the drug [1] | solubility of the di-sulfide complex formed, relative to cystine [2] [times] | time of primary urine excretion wave after oral administration ([3]; immediate-release tiopronin, oral) [h] | time after administration at which urine excretion of free tiopronin and mixed-sulfide tiopronin mostly occurs ([3]; in vivo) [h] | free tiopronin excreted in urine within 2 hours of administration ([3]; within 2 hours of Thiola administration) [%] | cases/patients in which the drug is discontinued ([4]; due to adverse reactions, need for frequent dosing, poor efficacy) | cystinuria patients failed by the medication (continue forming stones) ([4]; human, in vivo) [%] | patients who achieve and maintain therapeutic success ([4]; human, in vivo) [%] | period of effectiveness in reducing cystine urine levels ([4]; human, in vivo) [h]
CC(C)(S)[C@@H](N)C(=O)O [D-penicillamine] | 50-70% | 50 |  |  |  |  |  |  | 
CC(S)C(=O)NCC(=O)O (stereo not drawn) [tiopronin, alpha-mercaptopropionylglycine] |  |  | 3 to 4 | 2 to 4 | ≤ 95 | about 30% | 85 | 15 | 2 to 4
